According to patent US9296741B2, “Bromodomain inhibitors” (priority 2012, dated 2016):
Where two headings read alike, the source gives them in different places.

Tests used:
[1] = Human liver microsome stability assay; type: in vitro ADME; settings: human, microsomes, pH 7.4; for half-life at 0.5 μM: both sexes
[2] = system: LPS induced IL-6 production; test: LPS (lipopolysaccharide) induced IL-6 production mouse assay; type: in vivo; settings: 1 h before LPS, serum IL-6 2 h after LPS; for inhibition in vivo at 3 mg/kg: Mus musculus, read-out: Inhibition of LPS induced IL-6 production in Mice, % inhibition at 3 mg/kg
[3] = biological target: human BRD4 first bromodomain (BDI_K57-E168) (Homo sapiens (Human), UniProt O60885); test: TR-FRET bromodomain binding assay, BRD4 first bromodomain
[4] = biological target: human BRD4 second bromodomain (BDII_E352-M457) (Homo sapiens (Human), UniProt O60885); test: TR-FRET bromodomain binding assay, BRD4 second bromodomain
[5] = system: breast cancer cell line MX-1; test: MX-1 cell line proliferation assay; type: cell-based, human; settings: MX-1 cells, 3-day proliferation, Cell Titer Glo, read-out: Cellular proliferation: EC50
[6] = Mouse liver microsome stability assay; type: in vitro ADME; settings: microsomes, pH 7.4; for half-life at 0.5 μM: male, CD1, mouse
[7] = Rat liver microsome stability assay; type: in vitro ADME; settings: for half-life at 0.5 μM: rat liver microsomes (male Sprague-Dawley), 0.5 μM test compound, 0.25 mg/mL microsomal protein, pH 7.4, 37° C., read-out: Stability in rat liver microsomes (t1/2 in minutes)

SMILES	half-life at 0.5 μM [1]	Ki [3]	Ki [4]	EC50 ([5]; Homo sapiens, MX1, 72 h)	half-life at 0.5 μM [6]	half-life at 0.5 μM [7]	Stability in human liver microsomes (t1/2 in minutes) [1]	EC50 [5]	Stability in mouse liver microsomes (t1/2 in minutes) ([6]; mouse)	Stability in rat liver microsomes (t1/2 in minutes) ([7]; rat, microsomes, pH 7.4)	inhibition in vivo at 3 mg/kg ([2]; 3 mg/kg oral)	Inhibition of LPS induced IL-6 production in Mice, % inhibition at 50 mg/kg ([2]; 50 mg/kg oral)	Inhibition of LPS induced IL-6 production in Mice, % inhibition at 3 mg/kg ([2]; 3 mg/kg oral)	Inhibition of LPS induced IL-6 production in Mice, % inhibition at 30 mg/kg ([2]; 30 mg/kg oral)
CN(C)S(=O)(=O)c1ccc(OCC2CC2)c(-c2cn(C)c(=O)c3[nH]ccc23)c1 [Example 273, 4-(cyclopropylmethoxy)-N,N-dimethyl-3-(6-methyl-7-oxo-6,7-dihydro-1H-pyrrolo[2,3-c]pyridin-4-yl)benzenesulfonamide]	9 min	1.2 nM	1.3 nM	9 nM	8 min	12 min	–	–	–	–	47%	–	–	–
Cn1cc(-c2cc(S(=O)(=O)N3CC(F)(F)C3)ccc2OCC2CC2)c2cc[nH]c2c1=O [Example 308, 4-{2-(cyclopropylmethoxy)-5-[(3,3-difluoroazetidin-1-yl)sulfonyl]phenyl}-6-methyl-1,6-dihydro-7H-pyrrolo[2,3-c]pyridin-7-one]	20 min	49.9 nM	6.5 nM	29.3 nM	16 min	10 min	–	–	–	–	48%	–	–	–
Cn1cc(-c2cc(C(=O)N3CCOCC3)ccc2Oc2ccc(F)cc2F)c2cc[nH]c2c1=O [Example 56, 4-[2-(2,4-difluorophenoxy)-5-(morpholin-4-ylcarbonyl)phenyl]-6-methyl-1,6-dihydro-7H-pyrrolo[2,3-c]pyridin-7-one]	39 min	12.2 nM	2.4 nM	251 nM	36 min	30 min	–	–	–	–	28%	–	–	–
CCS(=O)(=O)c1ccc(Oc2ccc(C#N)cc2)c(-c2cn(C)c(=O)c3[nH]ccc23)c1 [Example 304, 4-[4-(ethylsulfonyl)-2-(6-methyl-7-oxo-6,7-dihydro-1H-pyrrolo[2,3-c]pyridin-4-yl)phenoxy]benzonitrile]	> 120 min	9 nM	21.8 nM	32.3 nM	72 min	65 min	–	–	–	–	67%	–	–	–
CCS(=O)(=O)c1cnc(Oc2ccc(F)cc2F)c(-c2cn(C)c(=O)c3[nH]ccc23)c1 [Example 294, 4-[2-(2,4-difluorophenoxy)-5-(ethylsulfonyl)pyridin-3-yl]-6-methyl-1,6-dihydro-7H-pyrrolo[2,3-c]pyridin-7-one]	> 120 min	47.9 nM	21.7 nM	332 nM	> 120 min	> 120 min	–	–	–	–	79%	–	–	–
Cn1cc(-c2cc(S(C)(=O)=O)ccc2Oc2ccc3ncccc3c2)c2cc[nH]c2c1=O [Example 162, 6-methyl-4-[5-(methylsulfonyl)-2-(quinolin-6-yloxy)phenyl]-1,6-dihydro-7H-pyrrolo[2,3-c]pyridin-7-one]	96 min	11.1 nM	4.6 nM	127 nM	11 min	41 min	–	–	–	–	41%	–	–	–
CCS(=O)(=O)Nc1ccc(OCC(C)(C)C)c(-c2cn(C)c(=O)c3[nH]ccc23)c1 [Example 144, N-[4-(2,2-dimethylpropoxy)-3-(6-methyl-7-oxo-6,7-dihydro-1H-pyrrolo[2,3-c]pyridin-4-yl)phenyl]ethanesulfonamide]	18 min	13.6 nM	17.8 nM	76.9 nM	17 min	19 min	–	–	–	–	48%	–	–	–

More lines, main results first:

half-life at 0.5 μM [1]	Ki [3]	Ki [4]	EC50 ([5]; Homo sapiens, MX1, 72 h)	half-life at 0.5 μM [6]	half-life at 0.5 μM [7]	Stability in human liver microsomes (t1/2 in minutes) [1]	EC50 [5]	Stability in mouse liver microsomes (t1/2 in minutes) ([6]; mouse)	Stability in rat liver microsomes (t1/2 in minutes) ([7]; rat, microsomes, pH 7.4)	SMILES	inhibition in vivo at 3 mg/kg ([2]; 3 mg/kg oral)	Inhibition of LPS induced IL-6 production in Mice, % inhibition at 50 mg/kg ([2]; 50 mg/kg oral)	Inhibition of LPS induced IL-6 production in Mice, % inhibition at 3 mg/kg ([2]; 3 mg/kg oral)	Inhibition of LPS induced IL-6 production in Mice, % inhibition at 30 mg/kg ([2]; 30 mg/kg oral)
48 min	1.8 nM	2.4 nM	34.2 nM	27 min	19 min	–	–	–	–	Cn1cc(-c2cc(NS(C)(=O)=O)ccc2Oc2cccnc2)c2cc[nH]c2c1=O [Example 11, N-[3-(6-methyl-7-oxo-6,7-dihydro-1H-pyrrolo[2,3-c]pyridin-4-yl)-4-(pyridin-3-yloxy)phenyl]methanesulfonamide]	34%	–	–	–
> 120 min	2 nM	2.8 nM	11.5 nM	47 min	> 120 min	–	–	–	–	CCS(=O)(=O)c1ccc(OCC2CC2(F)F)c(-c2cn(C)c(=O)c3[nH]ccc23)c1 (stereo not drawn) [Example 240, 4-{2-[(2,2-difluorocyclopropyl)methoxy]-5-(ethylsulfonyl)phenyl}-6-methyl-1,6-dihydro-7H-pyrrolo[2,3-c]pyridin-7-one]	62%	–	–	–
> 120 min	33.4 nM	32.1 nM	34.4 nM	> 120 min	103 min	–	–	–	–	Cn1cc(-c2cc(CS(C)(=O)=O)ccc2Oc2ccc(F)cc2F)c2cn[nH]c2c1=O [Example 321, 4-{2-(2,4-difluorophenoxy)-5-[(methylsulfonyl)methyl]phenyl}-6-methyl-1,6-dihydro-7H-pyrazolo[3,4-c]pyridin-7-one]	63%	–	–	–
16 min	1.5 nM	0.79 nM	11.7 nM	10 min	15 min	–	–	–	–	CCS(=O)(=O)c1ccc(OC2CCC3(CC2)OCCO3)c(-c2cn(C)c(=O)c3[nH]ccc23)c1 [Example 197, 4-[2-(1,4-dioxaspiro[4.5]dec-8-yloxy)-5-(ethylsulfonyl)phenyl]-6-methyl-1,6-dihydro-7H-pyrrolo[2,3-c]pyridin-7-one]	59%	–	–	–
95 min	4.4 nM	4.2 nM	43.6 nM	> 120 min	18 min	–	–	–	–	CCS(=O)(=O)c1ccc(NC2CC2)c(-c2cn(C)c(=O)c3[nH]ccc23)c1 [Example 267, 4-[2-(cyclopropylamino)-5-(ethylsulfonyl)phenyl]-6-methyl-1,6-dihydro-7H-pyrrolo[2,3-c]pyridin-7-one]	74%	–	–	–
100 min	15 nM	6.4 nM	31 nM	24 min	6 min	–	–	–	–	Cn1cc(-c2cc(NS(=O)(=O)CC(F)(F)F)ccc2Oc2ccccc2)c2cc[nH]c2c1=O [Example 5, 2,2,2-trifluoro-N-[3-(6-methyl-7-oxo-6,7-dihydro-1H-pyrrolo[2,3-c]pyridin-4-yl)-4-phenoxyphenyl]ethanesulfonamide]	–	74% at 50 mg/kg	–	–
> 120 min	12.1 nM	11.2 nM	135 nM	> 120 min	> 120 min	–	–	–	–	CC(O)c1cc2c(-c3cc(S(C)(=O)=O)ccc3Oc3ccc(F)cc3F)cn(C)c(=O)c2[nH]1 (stereo not drawn) [Example 278, 4-[2-(2,4-difluorophenoxy)-5-(methylsulfonyl)phenyl]-2-(1-hydroxyethyl)-6-methyl-1,6-dihydro-7H-pyrrolo[2,3-c]pyridin-7-one]	51%	–	–	–
–	1.8 nM	1.3 nM	–	–	–	69 min	7.3 nM	53 min	67 min	CCS(=O)(=O)c1ccc(OC2CCC(C)(O)CC2)c(-c2cn(C)c(=O)c3[nH]ccc23)c1 (stereo not drawn) [Example 212, 4-{5-(ethylsulfonyl)-2-[(trans-4-hydroxy-4-methylcyclohexyl)oxy]phenyl}-6-methyl-1,6-dihydro-7H-pyrrolo[2,3-c]pyridin-7-one]	–	–	47%	–
112 min	1.67 nM	0.65 nM	231 nM	> 120 min	92 min	–	–	–	–	CCS(=O)(=O)Nc1ccc(Oc2ccc(C(N)=O)cc2)c(-c2cn(C)c(=O)c3[nH]ccc23)c1 [Example 84, 4-{4-[(ethylsulfonyl)amino]-2-(6-methyl-7-oxo-6,7-dihydro-1H-pyrrolo[2,3-c]pyridin-4-yl)phenoxy}benzamide]	69%	–	–	–
71 min	1.7 nM	1.5 nM	19.6 nM	46 min	51 min	–	–	–	–	Cn1cc(-c2cc(NS(C)(=O)=O)ccc2Oc2c(F)cc(F)cc2F)c2cc[nH]c2c1=O [Example 49, N-[3-(6-methyl-7-oxo-6,7-dihydro-1H-pyrrolo[2,3-c]pyridin-4-yl)-4-(2,4,6-trifluorophenoxy)phenyl]methanesulfonamide]	57%	–	–	–
62 min	9.1 nM	6.1 nM	62 nM	31 min	2 min	–	–	–	–	Cn1nc(-c2cc(NS(C)(=O)=O)ccc2Oc2ccccc2)c2cc[nH]c2c1=O [Example 80, N-[3-(6-methyl-7-oxo-6,7-dihydro-1H-pyrrolo[2,3-d]pyridazin-4-yl)-4-phenoxyphenyl]methanesulfonamide]	–	–	–	69% at 30 mg/kg
